Results reported in PMC2151509 (The Journal of General Physiology, 2006).
Where a chain is given by its changes, count along the chain named.

What was measured:
[1] = target: T1, rat olfactory CNGA2 channel (homomeric) (Rattus norvegicus, UniProt Q00195, E342K); test: inside-out patch clamp, cGMP-activated current, Hill fit; type: cell-based
T1 sequence (Q00195 1-664 E342K): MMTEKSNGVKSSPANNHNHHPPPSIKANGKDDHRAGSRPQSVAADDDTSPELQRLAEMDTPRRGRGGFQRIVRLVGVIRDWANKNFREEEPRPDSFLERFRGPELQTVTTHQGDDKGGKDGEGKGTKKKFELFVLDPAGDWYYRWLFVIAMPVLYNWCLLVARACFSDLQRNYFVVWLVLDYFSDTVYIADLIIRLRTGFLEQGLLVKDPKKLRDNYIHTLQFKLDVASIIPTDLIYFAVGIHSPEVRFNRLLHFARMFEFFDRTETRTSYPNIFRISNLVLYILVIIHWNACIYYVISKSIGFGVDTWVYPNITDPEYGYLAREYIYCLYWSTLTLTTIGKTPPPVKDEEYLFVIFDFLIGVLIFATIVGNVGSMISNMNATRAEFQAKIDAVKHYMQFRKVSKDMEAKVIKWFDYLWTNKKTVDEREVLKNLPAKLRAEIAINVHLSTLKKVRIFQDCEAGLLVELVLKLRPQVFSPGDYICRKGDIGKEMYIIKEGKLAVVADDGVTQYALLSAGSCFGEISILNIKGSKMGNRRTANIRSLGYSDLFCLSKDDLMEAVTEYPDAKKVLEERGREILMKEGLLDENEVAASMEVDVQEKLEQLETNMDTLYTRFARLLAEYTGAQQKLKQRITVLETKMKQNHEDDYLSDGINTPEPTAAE

[2] = target: T2, rat olfactory CNGA2 channel (homomeric) (Rattus norvegicus, UniProt Q00195); test: inside-out patch clamp, cGMP-activated current; type: biochemical; details: agonist; 5 mM cGMP; 145 mM NaCl, pH 7.4, 21 °C
T2 sequence (Q00195 1-664): T1 sequence (Q00195 1-664 E342K) with K342E

EC50 [1]: 8.6 ± 1.2 µM
Compound: Nc1nc2c(ncn2[C@@H]2O[C@@H]3COP(=O)(O)O[C@H]3[C@H]2O)c(=O)[nH]1 [cGMP]
inside-out patch clamp, cGMP-activated current [2]: Macroscopic cGMP-activated currents in different NaCl dilutions in one inside-out patch with WT CNG channels
